Source: patent publication US11723897B2, “Fatty acids as anti-inflammatory agents” (University of Pittsburgh—Of the Commonwealth System of …, priority 2009, dated 2023)
“Also recorded” adds a separate entry of the source. Like-named read-outs stand apart in the source and are kept apart here.

Tests used:
[1] = tested on: EFAD formation in RAW264.7 cells; test: Inhibitor study: EFAD formation in RAW264.7 cells activated with Kdo2 and IFNγ; type: cell-based, murine; conditions: for Effect of inhibitor on EFAD-1 formation / Effect of inhibitor on EFAD-2 formation / Effect of inhibitor on EFAD-3 formation / Effect of inhibitor on EFAD-4 formation / Effect of inhibitor on EFAD-5 formation / Effect of inhibitor on EFAD-6 formation: RAW264.7 + Kdo2 + IFNγ, ↓ decrease, ↑ increase, NE (not defined in patent)
[2] = tested on: RAW264.7 cells; test: Fatty acid supplementation study in activated RAW264.7 cells; type: cell-based, murine; conditions: 32 μM fatty acid for 3 days, then Kdo2 + IFNγ, 20 h
Method: (a) A characteristic BME electrophile adduct fragmentation pattern. showing the major neutral loss of 78 amu (corresponding to the loss of BME) is represented by the enhanced product ion analysis of EFAD-2. (b) RAW264.7 cells were grown for 3 days in DMEM and 10% FBS supplemented with 32 μM of the indicated fatty acid. On the third day cells were activated with Kdo2 (0.5 μg/ml)) and IFNγ (200 U/ml) and EFAD-2 levels were quantified 20 h post activation. (c) Diagram of NaBH4 reduction of oxo-group to an alcohol group. (d) MRM scans monitoring for the mlz transition of 343.2/299.2 (oxo-DPA losing CO2) in RAW264.7 cell lysates purified for EFAD-2, non-treated or treated with NaBH4 (upper and lower panel); MRM scans monitoring for the mlz transition of [345.2/327.2 (hydroxy-DPA/neutral loss of H20) in RAW264.7 cell lysates purified for EFAD-2 and treated with NaBH4. (e) MS/MS fragmentation of EFAD-2 purified from activated RAW 264.7 cells and reduced with NaBH4.
FIG. 16a-16b illustrates that EFAD-1 and -3 are derived from the n-3 series of fatty acids. RAW264.7 cells were grown for 3 days in DMEM and 10% FBS supplemented with 32 μM of the indicated fatty acid. On the third day cells were activated with Kdo2 Lipid A (0.5 μg/ml) and IFNγ (200 U/ml) and EFAD-1 and -3 levels were quantified 20 h post activation.
Similarly, the EFAD of DHA (EFAD-1) and the EFAD of DTA (EFAD-3), were identified as mono-oxygenated derivatives of a 22-carbon fatty acid with a total of six and four double bonds, respectively. To elucidate the precursors in vivo, fatty acid supplementation studies were performed. […] Moreover, as illustrated in FIG. 4 EFAD-2 formation is COX-2 dependent.

[3] = target: rabbit GAPDH (Oryctolagus cuniculus, UniProt P46406); test: In vitro reaction of GAPDH with EFAD (mass spectrometry); type: binding; conditions: Cys244, Cys149, His163, His328
Method: FIG. 21a-21h illustrates the mass spectrometric analysis of an in vitro reaction of GAPDH with EFAD-2. Four residues were detected and confined as being targets for EfAD-2 in treated rabbit GAPDH. The peptides were alkylated as Cys244 (a), His163 (b), Cys149 (c) and His328 (d). Upper panels show EFAD-2 modified peptides and lower panels show spectra from corresponding native peptide.
To more specifically test the binding of EFADs to nucleophilic residues in proteins, we tested whether GAPDH was alkylated by EFADs. This enzyme is a well-characterized target for electrophiles and becomes easily inactivated by nitrosylation, oxidation or nucleophilic addition.

[4] = tested on: inducible nitric oxide synthase (iNOS); test: Nitrite, iNOS and Cox-2 levels in Kdo2+IFNγ-activated RAW264.7 cells; type: cell-based, murine; conditions: for iNOS induction and accumulation of nitrite in the cell media: RAW264.7
Method: FIG. 11a-11e illustrates modulation of anti-oxidant and inflammatory responses by 17-oxoDHA and 17-oxoDPA. RAW264.7 cells were treated with increasing concentration of 17-oxoDHA and 17-oxoDPA. (a) Cells were harvested 1 h after treatment and Nrf2 levels were quantified in nuclear extracts. (b) Cells were harvested 18 h after treatment and HO-1 and Nqo1 (upper band) levels were measured by western blot. (c, d) RAW264.7 cells were treated with increasing concentration of 17-oxoDHA and 17-oxoDPA for 6 h and Kdo2+IFNγ were added. Samples were collected at 12 h. IL-6, MCP-1 and IL-10 levels were measured in the cell media by Quantikine ELISA Kit (R&D Systems) and normalized by the total protein content (c); Nitrite levels were measured in the cell media and normalized by the total protein content and iNOS and Cox-2 levels were measured in total cell lysates (d); (e) PPARγ beta-lactamase reporter assays were performed for Rosiglitazone, 17-OxoDPA, 17-OxoDHA, 15d-PGJ2, 17-hydroxyDHA, DPA, and DHA with concentrations ranging from 0.5-10,000 nM.
For activation experiments RAW 264.7 cells were seeded, incubated overnight, and treated at approximately 80% confluence with the indicated compounds 47. Non-activated controls were treated with vehicle alone. During activation, cells were maintained in an activation medium (SMEM) of Minimum Essential Medium Eagle (Cellgro, 17-305)+2% FBS supplemented with L-glutamine (584 mg/L), Na-pyruvate (110 mg/L) and Hepes (3.57 g/L, pH 7.4). For inhibition studies, inhibitors were added to the medium at the time of activation and MTT assays were used to confirm cell viability. Cells were harvested 20 h post activation (unless otherwise indicated) in 50 mM phosphate buffer (pH 7.4) and snap frozen in liquid N2. THP-1 cells were differentiated with PMA (86 nM) for 16 h, activated with IFNγ (200 U/ml) and Kdo2 lipid A (0.5 μg/ml) in RPMI+2% FBS and harvested 40 h after differentiation. For treatment with EFADs alone, 17-oxoDHA and 17-oxoDPA were added to cell culture media at the indicated concentrations and for the indicated time period. For treatment with EFADs coupled with pro-inflammatory stimulation, addition of 17-oxoDHA and 17-oxoDPA was followed by addition of Kdo2 and IFNγ at 6 h.
Protein concentrations of samples were measured by BCA assay (Pierce). The following primary antibodies were used: Nrf2 (Santa Cruz, sc-722), HO-1 (Assay Design, SPA-896), Nqo1 (Abcam, ab34173), Cox-2 (Santa Cruz, sc-1745), iNOS (BD Transduction Lab, 610332), Lamin B1 (Abcam, ab16048). Actin (detected by Sigma A2066) was used as loading control. […]
Total nitrite and nitrate concentration was measured in cell culture media by Griess reaction using the Nitrate/Nitrite Colorimetric Assay Kit (Cayman Chemical).

[5] = tested on: RAW264.7 cells; test: Cytokine levels (IL-6, MCP-1, IL-10) in Kdo2+IFNγ-activated RAW264.7 cells; type: cell-based, murine
[6] = tested on: Nrf2-dependent anti-oxidant response pathway; test: Nrf2 nuclear accumulation and HO-1/Nqo1 expression (western blot) in RAW264.7 cells; type: cell-based, murine; conditions: for Nrf2 nuclear accumulation: nuclear extracts, 1 h after treatment; for Expression of HO-1 and Nqo1: western blot, 18 h after treatment
[7] = MK886 500 nM, ETYA 25 μM, OKA 50 nM, indomethacin 25 μM, diclofenac 1 μM, NS-398 4 μM, 20 h
[8] = Mus musculus, RAW264.7, genistein 25 μM, MAFP 25 μM, ibuprofen 100 μM, 20 h, read-out: Inhibition of EFAD production

Chain of rabbit GAPDH (P46406 whole entry): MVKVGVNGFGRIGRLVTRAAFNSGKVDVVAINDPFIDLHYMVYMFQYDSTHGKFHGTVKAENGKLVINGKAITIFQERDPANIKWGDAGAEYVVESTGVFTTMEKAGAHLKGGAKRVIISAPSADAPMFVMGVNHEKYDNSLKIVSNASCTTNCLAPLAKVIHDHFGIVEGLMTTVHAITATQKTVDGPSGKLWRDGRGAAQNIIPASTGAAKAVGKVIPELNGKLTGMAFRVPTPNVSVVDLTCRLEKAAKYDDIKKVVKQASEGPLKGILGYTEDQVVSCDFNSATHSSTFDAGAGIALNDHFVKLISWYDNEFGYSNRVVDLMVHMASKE

| Compound | Effect on EFAD formation (in words) [1, 7] | Effect of inhibitor on EFAD-1 formation ([1]; 20 h) | Effect of inhibitor on EFAD-2 formation ([1]; 20 h) | Effect of inhibitor on EFAD-3 formation ([1]; 20 h) | Effect of inhibitor on EFAD-4 formation ([1]; 20 h) | Effect of inhibitor on EFAD-5 formation ([1]; 20 h) | Effect of inhibitor on EFAD-6 formation ([1]; 20 h) | further results |
| --- | --- | --- | --- | --- | --- | --- | --- | --- |
| O=C(O)Cc1ccccc1Nc1c(Cl)cccc1Cl [Diclofenac] | completely abolish | ↓ | ↓ | ↓ | ↓ | ↓ | ↓ | – |
| CC/C=C\C/C=C\C/C=C\CCCCCCCC(=O)O [α-linolenic acid] | – | – | – | – | – | – | – | EFAD-2 formation after fatty acid supplementation [2]: significantly increased |
| CC/C=C\CC(=O)C=C/C=C\C/C=C\C/C=C\CCCCCC(=O)O [17-oxoDPA, 17-oxo-(7Z,10Z,13Z,15A,19Z)-docosa-7,10,13,15,19-pentanoic acid] | – | – | – | – | – | – | – | Adduct formation with GAPDH residues [3]: covalently bind Cys and His residues; Reduction of nitrite production ([4]; 25 μM): ~70%; iNOS induction and accumulation of nitrite in the cell media [4]: dose-dependent inhibition; IFNγ and LPS-induced cytokine production [5]: inhibited IFNγ and LPS-induced cytokine production in a dose-dependent manner; Nrf2 nuclear accumulation [6]: promoted dose-dependent; also recorded: promoting nuclear accumulation of Nrf2; Expression of HO-1 and Nqo1 [6]: promoted dose-dependent; also recorded: promoting |
| CC/C=C/C/C=C/C/C=C/C/C=C\C/C=C/C/C=C/CCC(=O)O [DHA, (4E,7E,10Z,13E,16E,19E)-docosa-4,7,10,13,16,19-hexanoic acid] | – | – | – | – | – | – | – | EFAD-1 formation after fatty acid supplementation [2]: increased; EFAD-2 formation after fatty acid supplementation [2]: did not increase |
| O=c1c(-c2ccc(O)cc2)coc2cc(O)cc(O)c12 [genistein] | – | ↓ | ↓ | ↓ | ↓ | ↓ | ↓ | inhibition at 25 µM [1, 8]: > 50% |
| CS(=O)(=O)Nc1ccc([N+](=O)[O-])cc1OC1CCCCC1 [NS-398] | abolished | – | – | – | – | – | – | – |
| C=C1[C@@H](O)[C@@H]2O[C@]3(CC[C@H](/C=C/[C@@H](C)[C@@H]4CC(C)=C[C@@]5(O[C@H](C[C@@](C)(O)C(=O)O)CC[C@H]5O)O4)O3)CC[C@H]2O[C@@H]1[C@@H](O)C[C@H](C)[C@H]1O[C@@]2(CCCCO2)CC[C@H]1C [OKA, okadaic acid] | – | – | – | – | – | – | – | Effect on EFAD formation (in words) [1]: slight increase |
| COc1ccc2c(c1)c(CC(=O)O)c(C)n2C(=O)c1ccc(Cl)cc1 [Indomethacin] | completely abolish | ↓ | ↓ | ↓ | ↓ | ↓ | ↓ | – |
| CCCCCC#CCC#CCC#CCC#CCCCC(=O)O [ETYA, Eicosatetraynoic acid] | strongly inhibit | ↓ | ↓ | ↓ | ↓ | ↓ | ↓ | – |
| CC/C=C\CC(=O)C=C/C=C\C/C=C\C/C=C\C/C=C\CCC(=O)O [17-oxoDHA, 17-oxo-(4Z,7Z,10Z,13Z,15A,19Z)-docosa-4,7,10,13,15,19-hexanoic acid] | – | – | – | – | – | – | – | Adduct formation with GAPDH residues [3]: covalently bind Cys and His residues; Reduction of nitrite production ([4]; 20 μM): ~70%; iNOS induction and accumulation of nitrite in the cell media [4]: dose-dependent inhibition; IFNγ and LPS-induced cytokine production [5]: inhibited IFNγ and LPS-induced cytokine production in a dose-dependent manner; Nrf2 nuclear accumulation [6]: promoted dose-dependent; also recorded: promoting nuclear accumulation of Nrf2; Expression of HO-1 and Nqo1 [6]: promoted dose-dependent; also recorded: promoting |
| CC/C=C\C/C=C\C/C=C\C/C=C\C/C=C\CCCC(=O)O [EPA, (5Z,8Z,11Z,14Z,17Z)-eicosa-5,8,11,14,17-pentanoic acid] | – | – | – | – | – | – | – | EFAD-2 formation after fatty acid supplementation [2]: significantly increased |
| CC(C)c1ccc2c(c1)c(SC(C)(C)C)c(CC(C)(C)C(=O)O)n2Cc1ccc(Cl)cc1 [MK886] | no significant effect | – | – | – | – | – | – | – |
| CC(C)Cc1ccc(C(C)C(=O)O)cc1 (racemic) [Ibuprofen] | – | ↓ | ↓ | ↓ | ↓ | – | ↓ | inhibition at 100 µM [1, 8]: > 80%; Effect of inhibitor on EFAD-1 formation ([1]; 20 h, listed as ibuprofen): no significant effect |
